The target in test [1] is T1, WT STING (Homo sapiens, UniProt Q86WV6, H232R). Put plainly: Differential Scanning Fluorimetry with WT STING. The class given is binding. More on the design: truncated human WT STING or AQ STING (amino acid residues 140-343); 8xHis (N, cleaved yes); SUMO (N, cleaved yes); made in house; host or cells: E. coli Rosetta-gami B (DE3). Conditions: thermal shift vs STING apoprotein, 150 μM CDN, 0.1 mg/ml truncated human WT STING, SYPRO Orange; for ΔTm at 150 µM: read-out: DSF ΔTm (° C.) WT STING. As for the experimental part:
(§1) WT STING and AQ STING Proteins
(§2) Purified PCR products were cleaved with restriction enzymes BamHI (cat. #R0136S, NEB, Ipswich, USA) and NotI (cat. #R0189S, NEB, Ipswich, USA) and cloned into the pSUMO vector linearized with the identical enzymes.
(§3) The resin was poured into a chromatography column, washed with 50 ml buffer A (50 mmol·l^−1 TrisCl (pH 8.0), 800 mmol·l^−1 NaCl, 3 mmol·l^−1 β-mercaptol; 10% glycerol; 20 mmol·l^−1 imidazole) and 8-His-SUMO tagged STING proteins were eluted with 15 ml buffer A containing 300 mmol·l^−1 imidazole. […] Proteins were concentrated with Amicon® Ultra-15 10 K device (cat. #UFC901008, Merck Millipore, Billerica, USA) and flash frozen in liquid N2.
(§4) Differential Scanning Fluorimetry with WT STING and AQ STING
(§5) 20 μL solutions of the reaction mixtures were pipetted in triplicates into 96 well optical reaction plates and thermal denaturation of samples were performed on real time PCR cycler (LightCycler® 480 Instrument II—Roche, Basel, Switzerland). The first derivative of the thermal denaturation curves was performed to calculate denaturing temperatures of STING—CDN complexes and STING apoproteins. The thermal shift for each CDN was calculated by subtracting the average denaturing temperature of STING apoprotein from the average denaturing temperature of STING CDN complex.
Target sequence in this assay (Q86WV6 140-343 H232R): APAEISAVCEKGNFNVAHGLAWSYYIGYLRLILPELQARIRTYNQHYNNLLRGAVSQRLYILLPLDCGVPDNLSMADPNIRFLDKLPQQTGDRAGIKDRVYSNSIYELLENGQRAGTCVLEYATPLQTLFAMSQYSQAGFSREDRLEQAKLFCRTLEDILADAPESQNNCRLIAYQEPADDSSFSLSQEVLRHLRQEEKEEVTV

Test [2] deals with T1, WT STING. Put plainly: Digitonin assay using 293T wtSTING-FL reporter cells. The test is classed as cell-based. Conditions: 293T wtSTING-FL cells; 30 minutes in Digitonin buffer, then 5 hours; ISRE firefly luciferase reporter; 8-point dose-response curve; read-out: Digitonin assay EC50 (μmol · l^−1) WT STING. The text has this:
ISRE Reporter Plasmid (pGL64.27-4xISRE)
Two complementary oligonucleotides of the sequence […] […] […] […] […] The oligonucleotides were mixed in equal molar amounts, hybridized, and cleaved by restriction endonucleases HindIII (cat. #. R0104S, NEB, Ipswich, USA) and BglII (cat. #R0144S, NEB, Ipswich, USA). Ultimately, they were ligated into plasmid pGL4.27 (cat. #E6651, Promega, Madison, USA) linearized with the same enzymes. As result the sequence with four ISRE sites was placed upstream of the minimum promoter of firefly luciferase reporter gene.
After 5 minutes incubation at room temperature (RT), 250 μL of the mixture was added dropwise to the cells in one well. Cells were incubated 36 hours at 37° C. with 5% CO2, and then detached with 0.05% Trypsin and 0.22 g/L EDTA (both cat. #L0941, Biowest, Riverside, USA).
Transfected cells were seeded onto poly-D-lysine coated six well plates at density 50,000 cells per 1 cm^2 in DMEM medium with high glucose containing 10% heat inactivated FBS, 30 g/mL blasticidin (cat. #ant-bl-05, InvivoGen, San Diego, USA), 0.06 mg/ml Penicillin G and 0.1 mg/ml Streptomycin Sulfate (both cat. #. L0018, Biowest, Riverside, USA). The medium was replenished every 3-4 days until visible colonies of cells resistant to blasticidin were formed.
Blasticidin resistant cells stably expressing WT STING were further transfected with […] plasmid following the same procedure as described above. […] Homogeneous culture of stably double transfected cells was prepared by limiting dilution of cells in 96 well plates and wells with cells were selected that originated from a single cell.
The medium was removed next day and three fold serial dilutions of compounds in Digitonin buffer containing 50 mmol·l^−1 HEPES (cat. #H3375, Sigma Aldrich, Czech Republic) pH 7.0, 100 mmol·l^−1 KCl, 3 mmol·l^−1 MgCl2, 0.1 mmol·l^−1 DTT (cat. #D0632, Sigma Aldrich, Czech Republic), 85 mmol·l^−1 Sucrose (cat. #S7903, Sigma Aldrich, Czech Republic), 0.2% BSA (cat. #A2153, Sigma Aldrich, Czech Republic), 1 mmol·l^−1 ATP (cat. #A1852, Sigma Aldrich, Czech Republic), 0.1 mmol·l^−1 GTP (cat. #G8877, Sigma Aldrich, Czech Republic), and 10 μg/mL Digitonin A (cat. #D141, Sigma Aldrich, Czech Republic) were added to the cells. The buffer was removed after 30 minutes incubation at 37° C. with 5% CO2, the cells were washed once with 100 μl of cultivation medium, and 100 μl of medium was added to each well. The plates with cells were incubated for 5 hours at 37° C. with 5% CO2, 50 μl of the medium was removed and 30 μl of ONE-Glo™ Luciferase Assay System reagent (cat. #E6120, Promega, Madison, USA) was added to each well. Luminescence was read on Synergy H1 (Biotek, Winooski, USA).
(Reporter assays use an easily measured gene product as a stand-in for the process of interest.)
Target sequence in this assay (Q86WV6 whole entry H232R, the tested form may be a part): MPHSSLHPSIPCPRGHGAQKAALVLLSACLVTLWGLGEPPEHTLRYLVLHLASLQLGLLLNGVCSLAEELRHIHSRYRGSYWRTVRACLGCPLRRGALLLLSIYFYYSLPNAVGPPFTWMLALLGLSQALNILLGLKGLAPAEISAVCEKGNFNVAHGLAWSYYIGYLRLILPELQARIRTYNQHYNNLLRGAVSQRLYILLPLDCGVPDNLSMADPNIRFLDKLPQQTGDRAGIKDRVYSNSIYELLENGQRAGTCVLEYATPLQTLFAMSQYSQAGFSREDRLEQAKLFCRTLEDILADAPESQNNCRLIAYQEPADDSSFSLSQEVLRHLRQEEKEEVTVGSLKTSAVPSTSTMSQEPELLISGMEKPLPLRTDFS

The target in test [3] is T2, AQ STING (G230A-R293Q) (Homo sapiens, UniProt Q86WV6, G230A/H232R/R293Q).
T2 construct: truncated human WT STING or AQ STING (amino acid residues 140-343); 8xHis (N, cleaved yes); SUMO (N, cleaved yes); made in house; host or cells: E. coli Rosetta-gami B (DE3)
T2 sequence (Q86WV6 140-343 G230A/H232R/R293Q): as the sequence (Q86WV6 140-343 H232R) above, with G91A, R154Q counted along it
In words: Differential Scanning Fluorimetry with AQ STING. The class given is binding. To be noted: thermal shift vs STING apoprotein, 150 μM CDN, 0.1 mg/ml truncated human AQ STING, SYPRO Orange; for ΔTm at 150 µM: read-out: DSF ΔTm (° C.) AQ STING. The procedure: as §1, §2, §3, §4, §5
(In general: In DSF a fluorescence change marks the thermal transition of the protein.)

The record followed here is patent US11203610B2, “2′3′ cyclic dinucleotides with phosphonate bond activating the sting adaptor protein” (INSTITUTE OF ORGANIC CHEMISTRY AND BIOCHEMISTRY ASCR, V.V.I., priority 2017, dated 2021).

By EC50 is commonly meant the concentration giving half of the maximal effect. What is called ΔTm is the change in melting temperature against a reference sample.

For the molecule “1R,6R,8R,9R,10R,15R,17R,18S)-8,17-bis(6-amino-9H-purin-9-yl)-9-fluoro-3,12,18-trihydroxy-2,4,7,11,14,16-hexaoxa-3λ^5,12λ^5-diphosphatricyclo[13.2.1.0^6,^10]octadecane-3,12-dione [Compound 34]”, the “DSF ΔTm (° C.) WT STING” value in test [1] came to 2.6 °C. For the same molecule, the EC50 in test [2] stood at 700 nM. Moreover, in test [3], the “DSF ΔTm (° C.) AQ STING” value turned out to be 8.5 °C.

Regarding `Nc1nc2c(ncn2[C@@H]2O[C@@H]3COP(=O)(O)O[C@@H]4[C@H](O)[C@@H](COP(=O)(O)O[C@@H]2[C@@H]3O)O[C@H]4n2cnc3c(N)ncnc32)c(=O)[nH]1` [2′2′-cGAMP, reference compound], the “DSF ΔTm (° C.) WT STING” value in test [1] amounted to 11.5 °C. For the same molecule, in test [2], the EC50 stood at 30 nM. In test [3], the “DSF ΔTm (° C.) AQ STING” value was determined as 19.4 °C.

For the molecule `Nc1ncnc2c1ncn2[C@@H]1O[C@@H]2COP(=O)(O)O[C@H]3[C@@H](O)[C@H](n4cnc5c(N)ncnc54)O[C@@H]3COP(=O)(O)O[C@H]2[C@H]1O` [3′3′c-di-AMP, reference compound], the “DSF ΔTm (° C.) WT STING” value in test [1] amounted to 2.6 °C. In addition, the 50% effective concentration (EC50) in test [2] was 300 nM. For the same molecule, the “DSF ΔTm (° C.) AQ STING” value in test [3] came out at 9.3 °C.

As to `Nc1nc2c(ncn2[C@@H]2O[C@@H]3COP(=O)(O)O[C@H]4[C@@H](O)[C@H](n5cnc6c(=O)[nH]c(N)nc65)O[C@@H]4COP(=O)(O)O[C@H]3[C@H]2O)c(=O)[nH]1` [3′3′c-di-GMP, reference compound], the “DSF ΔTm (° C.) WT STING” value in test [1] turned out to be 2.6 °C. Further, in test [2], the EC50 was found to be 5800 nM. Moreover, in test [3], the “DSF ΔTm (° C.) AQ STING” value stood at 7.7 °C.

Regarding `Nc1ncnc2c1ncn2[C@@H]1O[C@@H]2OCP(=O)(O)O[C@@H]3[C@H](O)[C@@H](OCP(=O)(O)O[C@H]2[C@H]1O)O[C@H]3n1cnc2c(N)ncnc21` [Compound 30, (1R,6R,8R,9R,10S,15R,17R,18S)-8,17-bis(6-amino-9H-purin-9-yl)-3,9,12,18-tetrahydroxy-2,5,7,11,14,16-hexaoxa-3λ^5,12λ^5-diphosphatricyclo[13.2.1.0^6,^10]octadecane-3,12-dione], the thermal shift (ΔTm) at 150 µM is 0.8 °C in test [1] and 6.4 °C in test [3]. The EC50 in test [2] turned out to be 6700 nM.

Take `Nc1ncnc2c1ncn2[C@@H]1O[C@@H]2COP(=O)(O)O[C@@H]3[C@H](O)[C@@H](COCP(=O)(O)O[C@H]2[C@H]1O)O[C@H]3n1cnc2c(N)ncnc21` [Compound 31]: the ΔTm at 150 µM in test [1] is 0.5 °C; in test [3], 5.7 °C. For the same molecule, the EC50 in test [2] was determined as 12500 nM.

For `Nc1ncnc2c1ncn2[C@@H]1O[C@@H]2COCP(=O)(O)O[C@@H]3[C@H](O)[C@@H](COP(=O)(O)O[C@H]2[C@H]1O)O[C@H]3n1cnc2c(N)ncnc21` [Compound 32, (1R,6S,7R,8R,10R,16R,17R,19R)-8,17-bis(6-amino-9H-purin-9-yl)-4,7,14,19-tetrahydroxy-3,5,9,12,15,18-hexaoxa-4λ^5,14λ^5-diphosphatricyclo[14.2.1.0^6,^10]nonadecane-4,14-dione], the ΔTm at 150 µM in test [1] is 0.5 °C; in test [3] it was 5.3 °C. Further, in test [2], the EC50 was 8000 nM.

Take `Nc1ncnc2c1ncn2[C@@H]1O[C@@H]2COP(=O)(O)O[C@@H]3[C@H](O)[C@@H](COCP(=O)(O)O[C@H]2[C@H]1F)O[C@H]3n1cnc2c(N)ncnc21` [Compound 33, (1R,6R,8R,9R,10R,16R,18R,19R)-8,18-bis(6-amino-9H-purin-9-yl)-9-fluoro-3,12,19-trihydroxy-2,4,7,11,14,17-hexaoxa-3λ^5,12λ^5-diphosphatricyclo[14.2.1.0^6,^10]nonadecane-3,12-dione]: the values for the ΔTm at 150 µM in test [1] and in test [3] were 1.6 °C and 8.3 °C, respectively. The EC50 in test [2] came to 2600 nM.

For the molecule `Nc1nc2c(ncn2[C@@H]2C[C@@H]3COP(=O)(O)O[C@@H]4[C@@H](OCP(=O)(O)O[C@@H]2[C@@H]3O)O[C@@H](n2cnc3c(N)ncnc32)[C@@H]4O)c(=O)[nH]1` [Compound 36, (1S,6R,8R,9R,10S,15R,17R,18R)-17-(2-amino-6-oxo-6,9-dihydro-1H-purin-9-yl)-8-(6-amino-9H-purin-9-yl)-3,9,12,18-tetrahydroxy-2,5,7,11,13-pentaoxa-3λ^5,12λ^5-diphosphatricyclo[13.2.1.0^6,10]octadecane-3,12-dione], the ΔTm at 150 µM in test [1] turned out to be 5.8 °C; in test [3], 14.2 °C. Further, the EC50 in test [2] is 180 nM.

For `Nc1ncnc2c1ncn2[C@@H]1O[C@@H]2OCP(=O)(O)O[C@@H]3[C@H](O)[C@@H](COP(=O)(O)O[C@H]2[C@H]1O)O[C@H]3n1cnc2c(=O)[nH]cnc21` [Compound 37, (1R,6R,8R,9R,10S,15R,17R,18R)-8-(6-amino-9H-purin-9-yl)-3,9,12,18-tetrahydroxy-17-(6-oxo-6,9-dihydro-1H-purin-9-yl)-2,5,7,11,13,16-hexaoxa-3λ^5,12λ^5 diphosphatricyclo[13.2.1.0^6,10]octadecane-3,12-dione], the results for the ΔTm at 150 µM in test [1] and in test [3] were 8.5 °C and 16.5 °C, respectively. The EC50 in test [2] stood at 50 nM.

With `Nc1nc2c(ncn2[C@@H]2O[C@@H]3COP(=O)(O)O[C@@H]4[C@@H](OCP(=O)(O)O[C@@H]2C3)O[C@@H](n2cnc3c(N)ncnc32)[C@@H]4O)c(=O)[nH]1` [Compound 38, (1R,6R,8R,9R,10S,15S,17R)-17-(2-amino-6-oxo-6,9-dihydro-1H-purin-9-yl)-8-(6-amino-9H-purin-9-yl)-3,9,12-trihydroxy-2,5,7,11,13,16-hexaoxa-3λ^5,12λ^5-diphosphatricyclo[13.2.1.0^6,10]octadecane-3,12-dione], the ΔTm at 150 µM in test [1] was found to be 8.2 °C; in test [3], 16.2 °C. For the same molecule, the EC50 in test [2] came out at 50 nM.
